Reference: patent US12435044B2, “Pyridazinone herbicides and pyridazinone intermediates used to prepare a herbicide” (FMC Corporation, priority 2018, dated 2025)

Assays:
Format in all cases: in vivo
[1] = tested on: arrowleaf sida (Sida rhombifolia); test: Test E pre-/postemergence greenhouse test
Description: (§1) Seeds of plant species selected from corn (Zea mays), soybean (Glycine max), velvetleaf (Abutilon theophrasti), lambsquarters (Chenopodium album), poinsettia, wild (Euphorbia heterophylla), pigweed, palmer (Amaranthus palmeri), waterhemp (common waterhemp, Amaranthus rudis), surinam grass (Brachiaria decumbens), crabgrass, large (Digitaria sanguinalis), crabgrass, Brazil (Digitaria horizontalis), panicum, fall (Panicum dichotomiflorum), foxtail, giant (Setaria faberii), foxtail, green (Setaria viridis), goosegrass (Eleusine indica), johnsongrass (Sorghum halepense), ragweed (common ragweed, Ambrosia elatior), barnyardgrass (Echinochloa crus-galli), sandbur (southern sandbur, Cenchrus echinatus), arrowleaf sida (Sida rhombifolia), ryegrass, Italian (Lolium multiflorum), dayflower, VA (Virginia (VA) dayflower, Commelina virginica), field bindweed (Convolvulus arvensis), morningglory (Ipomoea coccinea), horseweed (Conyza canadensis), kochia (Kochia scoparia), nutsedge, yellow (Cyperus esculentus) and hairy beggarticks (Bidenspilosa), were planted into a silt loam soil and treated preemergence with test chemicals formulated in a non-phytotoxic solvent mixture which included a surfactant.
(§2) At the same time, plants selected from these crop and weed species and also waterhemp_RES1, (ALS & Triazine resistant common waterhemp, Amaranthus rudis), and waterhemp_RES2, (ALS & HPPD resistant common waterhemp, Amaranthus rudis) were planted in pots containing Redi-Earth® planting medium (Scotts Company, 14111 Scottslawn Road, Marysville, Ohio 43041) comprising spaghnum peat moss, vermiculite, wetting agent and starter nutrients were treated with postemergence applications of test chemicals formulated in the same manner. Plants ranged in height from 2 to 18 cm for postemergence treatments (1- to 4-leaf stage). Treated plants and controls were maintained in a greenhouse for 14 to 21 d, after which time all species were compared to controls and visually evaluated. Plant response ratings, summarized in Table E, are based on a scale of 0 to 100 where 0 is no effect and 100 is complete control. A dash (-) response means no test result.

[2] = tested on: crabgrass, Brazil (Digitaria horizontalis); test: Test E pre-/postemergence greenhouse test
Description: as §1, §2

[3] = tested on: field bindweed (Convolvulus arvensis); test: Test E pre-/postemergence greenhouse test
Description: as §1, §2

[4] = tested on: hairy beggarticks (Bidenspilosa); test: Test E pre-/postemergence greenhouse test
Description: as §1, §2

[5] = tested on: johnsongrass (Sorghum halepense); test: Test E pre-/postemergence greenhouse test; conditions: Preemergence
Description: as §1, §2

kochia (Kochia scoparia) = test: Test E pre-/postemergence greenhouse test
Description: as §1, §2

[6] = tested on: nutsedge, yellow (Cyperus esculentus); test: Test E pre-/postemergence greenhouse test; conditions: Preemergence
Description: as §1, §2

[7] = tested on: redstem (purple redstem, Ammannia coccinea); test: Test F flooded paddy test; conditions: Flood, after 21 d
Description: (§3) Three plastic pots (ca. 16-cm diameter) per rate were partially filled with sterilized Tama silt loam soil comprising a 35:50:15 ratio of sand, silt and clay and 2.6% organic matter. Separate plantings for each of the three pots were as follows. Seeds from the U.S. of monochoria (Monochoria vaginalis), sedge, umbrella (small-flower umbrella sedge, Cyperus difformis) and redstem (purple redstem, Ammannia coccinea), were planted into one 16-cm pot for each rate. Seeds from the U.S. of rice flatsedge (Cyperus iria), sprangletop, Brdd. (bearded sprangletop, Leptochloa fascicularis), one stand of 9 or 10 water seeded rice seedlings (Rice, W. S. Jap, Oryza sativa cv. ‘Japonica-M202’ or Rice, W. S. Ind, ‘Indica’), and two stands of 3 or 4 transplanted rice seedlings (Oryza sativa cv. ‘Japonica-M202’) were planted into one 16-cm pot for each rate. Seeds from the U.S. of barnyardgrass (Echinochloa crus-galli), and late watergrass (Echinochloa oryzicola) were planted into one 16-cm pot for each rate.
(§4) Plantings were sequential so that crop and weed species were at the 2.0 to 2.5-leaf stage at time of treatment.
(§5) Potted plants were grown in a greenhouse with day/night temperature settings of 30/27° C., and supplemental balanced lighting was provided to maintain a 16-hour photoperiod. Test pots were maintained in the greenhouse until test completion.
(§6) At time of treatment, test pots were flooded to 3 cm above the soil surface, treated by application of test compounds directly to the paddy water, and then maintained at that water depth for the duration of the test. Effects of treatments on rice and weeds were visually evaluated by comparison to untreated controls after 21 d. Plant response ratings, summarized in Table F, are based on a scale of 0 to 100 where 0 is no effect and 100 is complete control. A dash (-) response means no test result.

[8] = tested on: rice flatsedge (Cyperus iria); test: Test F flooded paddy test; conditions: Flood, after 21 d
Description: as §3, §4, §5, §6

[9] = tested on: sedge, umbrella (small-flower umbrella sedge, Cyperus difformis); test: Test F flooded paddy test; conditions: Flood, after 21 d
Description: as §3, §4, §5, §6

[10] = tested on: sprangletop, Brdd. (bearded sprangletop, Leptochloa fascicularis); test: Test F flooded paddy test; conditions: Flood, after 21 d
Description: as §3, §4, §5, §6

Cc1ccc2ccc(C)c(-c3c(O)c(Cl)nn(C)c3=O)c2c1 [Cpd. No. 20, 6-chloro-4-(2,7-dimethyl-1-naphthalenyl)-5-hydroxy-2-methyl-3(2H)-pyridazinone]
60: Plant response rating, Arrowleaf Sida ([1]; Postemergence, 16 g ai/ha) | Plant response rating, Crabgrass, Brazil ([2]; Postemergence, 62 g ai/ha) | Plant response rating (0 to 100 scale) ([9]; 62 g ai/ha)
70: Plant response rating, Arrowleaf Sida ([1]; Postemergence, 31 g ai/ha) | Plant response rating, Arrowleaf Sida ([1]; Postemergence, 62 g ai/ha) | Plant response rating, Kochia (kochia (Kochia scoparia); Preemergence, 62 g ai/ha) | Plant response rating (0 to 100 scale) ([8]; 31 g ai/ha)
99: Plant response rating (0 to 100 scale) ([7]; 250 g ai/ha)
90: Plant response rating, Arrowleaf Sida ([1]; Preemergence, 16 g ai/ha) | Plant response rating, Arrowleaf Sida ([1]; Preemergence, 31 g ai/ha) | Plant response rating, Crabgrass, Brazil ([2]; Preemergence, 31 g ai/ha) | Plant response rating, Field Bindweed ([3]; Postemergence, 31 g ai/ha) | Plant response rating, Field Bindweed ([3]; Postemergence, 62 g ai/ha) | Plant response rating, Field Bindweed ([3]; Postemergence, 125 g ai/ha) | Plant response rating, Field Bindweed ([3]; Preemergence, 62 g ai/ha) | Plant response rating, Beggarticks ([4]; Postemergence, 16 g ai/ha) | Plant response rating, Beggarticks ([4]; Preemergence, 31 g ai/ha) | Plant response rating, Kochia (kochia (Kochia scoparia); Postemergence, 125 g ai/ha)
10: Plant response rating, Nutsedge, Yellow ([6]; 16 g ai/ha)
92: Plant response rating (0 to 100 scale) ([7]; 125 g ai/ha)
75: Plant response rating, Arrowleaf Sida ([1]; Postemergence, 125 g ai/ha) | Plant response rating, Crabgrass, Brazil ([2]; Preemergence, 16 g ai/ha) | Plant response rating, Field Bindweed ([3]; Postemergence, 16 g ai/ha) | Plant response rating, Kochia (kochia (Kochia scoparia); Postemergence, 31 g ai/ha) | Plant response rating, Nutsedge, Yellow ([6]; 62 g ai/ha) | Plant response rating, Nutsedge, Yellow ([6]; 125 g ai/ha)
15: Plant response rating, Nutsedge, Yellow ([6]; 31 g ai/ha)
85: Plant response rating, Arrowleaf Sida ([1]; Preemergence, 125 g ai/ha) | Plant response rating, Crabgrass, Brazil ([2]; Postemergence, 125 g ai/ha) | Plant response rating, Field Bindweed ([3]; Preemergence, 31 g ai/ha) | Plant response rating, Kochia (kochia (Kochia scoparia); Preemergence, 125 g ai/ha) | Plant response rating (0 to 100 scale) ([8]; 62 g ai/ha)
95: Plant response rating, Beggarticks ([4]; Postemergence, 31 g ai/ha) | Plant response rating, Beggarticks ([4]; Postemergence, 62 g ai/ha) | Plant response rating, Beggarticks ([4]; Preemergence, 62 g ai/ha) | Plant response rating (0 to 100 scale) ([9]; 125 g ai/ha)
97: Plant response rating (0 to 100 scale) ([8]; 125 g ai/ha)
0: Plant response rating, Johnsongrass ([5]; 16 g ai/ha) | Plant response rating, Johnsongrass ([5]; 31 g ai/ha) | Plant response rating, Kochia (kochia (Kochia scoparia); Preemergence, 16 g ai/ha) | Plant response rating (0 to 100 scale) ([7]; 31 g ai/ha) | Plant response rating (0 to 100 scale) ([7]; 62 g ai/ha) | Plant response rating (0 to 100 scale) ([9]; 31 g ai/ha)
100: Plant response rating, Crabgrass, Brazil ([2]; Preemergence, 62 g ai/ha) | Plant response rating, Crabgrass, Brazil ([2]; Preemergence, 125 g ai/ha) | Plant response rating, Field Bindweed ([3]; Preemergence, 125 g ai/ha) | Plant response rating, Beggarticks ([4]; Postemergence, 125 g ai/ha) | Plant response rating, Beggarticks ([4]; Preemergence, 125 g ai/ha) | Plant response rating (0 to 100 scale) ([8]; 250 g ai/ha) | Plant response rating (0 to 100 scale) ([9]; 250 g ai/ha)
40: Plant response rating, Crabgrass, Brazil ([2]; Postemergence, 31 g ai/ha)
80: Plant response rating, Arrowleaf Sida ([1]; Preemergence, 62 g ai/ha) | Plant response rating, Kochia (kochia (Kochia scoparia); Postemergence, 16 g ai/ha) | Plant response rating, Kochia (kochia (Kochia scoparia); Postemergence, 62 g ai/ha)
50: Plant response rating, Johnsongrass ([5]; 125 g ai/ha) | Plant response rating, Kochia (kochia (Kochia scoparia); Preemergence, 31 g ai/ha)
5: Plant response rating, Field Bindweed ([3]; Preemergence, 16 g ai/ha)
20: Plant response rating, Crabgrass, Brazil ([2]; Postemergence, 16 g ai/ha) | Plant response rating, Beggarticks ([4]; Preemergence, 16 g ai/ha)

Cc1cc(Cl)c2ccccc2c1-c1c(O)c(Cl)nn(C)c1=O [Cpd. No. 65]
100: Plant response rating (0 to 100 scale) ([10]; 125 g ai/ha)
98: Plant response rating (0 to 100 scale) ([10]; 64 g ai/ha)
